Active and inactive are the calls of the source. Unless noted, the rule behind the calls is not given here.
Tests used:
[1] = target: T1, Heat shock factor protein 1 (Mus musculus, UniProt P38532); test: inhibition of MG132-induced HSE-luciferase signal, confirmation, cell-based, NIH3T3, luminescence, dose retest (AID 2382); format: functional;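 also: NIH3T3 fibroblasts with HSF1-driven luciferase reporter stressed by proteasome inhibitor MG132; luminescence from HSF1-driven luciferase expression after 8 hours of MG132 stress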
T1 sequence (P38532 whole entry): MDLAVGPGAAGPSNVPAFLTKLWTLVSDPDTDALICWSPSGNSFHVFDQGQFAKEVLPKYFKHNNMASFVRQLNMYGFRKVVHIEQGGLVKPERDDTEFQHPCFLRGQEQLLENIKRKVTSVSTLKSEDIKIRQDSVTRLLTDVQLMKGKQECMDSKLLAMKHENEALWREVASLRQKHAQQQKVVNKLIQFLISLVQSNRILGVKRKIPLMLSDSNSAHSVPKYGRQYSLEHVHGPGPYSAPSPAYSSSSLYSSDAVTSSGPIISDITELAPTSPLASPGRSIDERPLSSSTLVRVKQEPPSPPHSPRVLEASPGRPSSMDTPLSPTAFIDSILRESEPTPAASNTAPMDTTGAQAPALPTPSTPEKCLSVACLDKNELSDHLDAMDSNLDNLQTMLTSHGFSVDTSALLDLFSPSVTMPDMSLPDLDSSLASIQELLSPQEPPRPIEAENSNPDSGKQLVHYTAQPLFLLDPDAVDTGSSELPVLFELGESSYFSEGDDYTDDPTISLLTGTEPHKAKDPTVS

[2] = target: COUP transcription factor 2 (Homo sapiens, UniProt P24468); test: Luminescence-based cell-based high throughput dose response assay to identify inhibitors of COUP-TFII (NR2F2).; format: functional;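 also: HEK293 cells transiently cotransfected with COUP-TFII expression vector and reporter; luciferase reporter luminescence driven by COUP-TFII from the pX2-168 reporter plasmid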
[3] = target: Disintegrin and metalloproteinase domain-containing protein 17 (Homo sapiens, UniProt P78536); test: ADAM17 protease inhibitors, dose response, counter-screen for ADAM10 exosite inhibitor project, biochemical, quenched FRET substrate (AID 743253)
14-3-3 protein gamma = target: T2, 14-3-3 protein gamma (Homo sapiens, UniProt P61981); test: modulators of 14-3-3 gamma client binding – dose response (AID 711); format: functional
T2 sequence (P61981 whole entry): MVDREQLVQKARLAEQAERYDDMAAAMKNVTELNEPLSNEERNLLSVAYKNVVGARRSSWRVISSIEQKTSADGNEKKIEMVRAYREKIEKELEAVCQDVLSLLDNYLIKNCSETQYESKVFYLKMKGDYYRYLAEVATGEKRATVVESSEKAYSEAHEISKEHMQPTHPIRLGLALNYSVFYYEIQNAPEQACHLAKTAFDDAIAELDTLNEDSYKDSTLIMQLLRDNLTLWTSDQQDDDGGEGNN

[4] = target: FAD-linked sulfhydryl oxidase ALR (Homo sapiens, UniProt P55789); test: inhibitors of human ALR sulfhydryl oxidase, dose response, biochemical, H2O2 detection, luminescence, cherry-pick (AID 493248)
Protein skinhead-1 = target: T3, Protein skinhead-1 (Caenorhabditis elegans, UniProt P34707); format: functional
T3 sequence (P34707 whole entry): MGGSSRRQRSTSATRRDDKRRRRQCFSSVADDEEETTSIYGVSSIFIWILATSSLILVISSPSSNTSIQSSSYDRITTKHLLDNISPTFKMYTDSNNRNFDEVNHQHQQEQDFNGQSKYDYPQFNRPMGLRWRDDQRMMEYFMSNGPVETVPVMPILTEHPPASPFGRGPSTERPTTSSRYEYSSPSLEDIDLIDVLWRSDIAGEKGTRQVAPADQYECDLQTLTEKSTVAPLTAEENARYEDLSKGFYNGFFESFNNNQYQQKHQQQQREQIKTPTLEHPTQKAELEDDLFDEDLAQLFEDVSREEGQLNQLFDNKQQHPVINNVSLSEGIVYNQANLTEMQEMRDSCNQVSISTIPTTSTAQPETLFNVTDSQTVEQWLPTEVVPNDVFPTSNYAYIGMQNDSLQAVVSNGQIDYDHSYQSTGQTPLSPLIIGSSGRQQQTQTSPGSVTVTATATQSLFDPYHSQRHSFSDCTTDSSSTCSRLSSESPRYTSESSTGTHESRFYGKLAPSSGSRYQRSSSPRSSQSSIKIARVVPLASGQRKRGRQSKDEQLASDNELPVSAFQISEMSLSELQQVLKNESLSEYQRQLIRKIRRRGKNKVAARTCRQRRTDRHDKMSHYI

[5] = target: Glutathione-S-transferase (Schistosoma japonicum, UniProt Q26513); test: biotin-GST/anti-GST TR-FRET signal inhibitors, dose response, artefact control for Vif-APOBEC3G degradation inhibitor project, biochemical (AID 1117362); format: functional
[6] = target: Kappa-type opioid receptor (Homo sapiens, UniProt P41145); test: Late-stage fluorescence-based cell-based dose response assay for antagonists of kappa opioid receptor 1 (OPRK1).; format: functional
Mu-type opioid receptor = Mu-type opioid receptor (Homo sapiens, UniProt P35372); test: Late-stage results from the probe development effort to identify antagonists of OPRK1: luminescence-based cell-based dose response OPRM1 counterscreen, Set 2.; format: functional
[7] = target: Delta-type opioid receptor (Homo sapiens, UniProt P41143); test: Late-stage results from the probe development effort to identify antagonists of OPRK1: fluorescence-based cell-based dose response OPRD1 counterscreen, Set 2.; format: functional
[8] = target: Sphingosine 1-phosphate receptor 1 (Homo sapiens, UniProt P21453); test: Late-stage counterscreen for antagonists of kappa opioid receptor 1 (OPRK1): fluorescence-based cell-based dose response assay to identify antagonists of Sphingosine 1-Phosphate Receptor 1 (S1P1).; format: functional
[9] = inhibitors of firefly luciferase expression or activity, dose response, H4 neuroglioma cells, luminescence (AID 1990); format: functional, cell-based
[10] = Luminescence Cell-Based Dose Response HTS to Identify Inhibitors of 5'UTR Stem-Loop Driven Prion Protein mRNA Translation in H4 Neuroglioblastoma Cells. [Related pubchem assays: 1827 (Project Summary), 1813 (Primary HTS)]; format: functional
[11] = inhibitors of SNCA 5'UTR-driven reporter translation, confirmation, H4 neuroglioma cells, luminescence (AID 1988); format: functional, cell-based
[12] = cytotoxicity in HEK-293T cells, dose response, cytotoxicity control for TCR NF-kB inhibitor project, luminescence, T-cell screen hits (AID 489026); format: functional, cell-based;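 also: cells exposed to compound about 14 hours before the viability readout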
[13] = HepG2 cell cytotoxicity, dose response, cytotoxicity control, ATP luminescence, cherry-pick, set 6 (AID 1053125); format: functional, cell-based
[14] = HEK293 cell cytotoxicity, dose response, cytotoxicity control, dry powder samples (AID 720567); format: functional, cell-based
[15] = target: NAD-dependent protein deacylase sirtuin-5, mitochondrial (Homo sapiens, UniProt Q9NXA8); test: SIRT5 desuccinylase inhibitors, dose response, biochemical, fluorescence imaging, cherry-pick, set 5 (AID 720591);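 also: desuccinylation of succinyl peptide AMC substrate read as fluorescence after trypsin release; potency of inhibitors that lower fluorescence and may act on trypsin instead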
[16] = Concentration-dependent survival of SW480 colon cancer line, luminescence detection with CellTiter-Glo, half-maximal inhibitory concentration (AID 1117338); format: functional
[17] = RKO cell viability reduction, dose response, CellTiter-Glo luminescence (AID 1117322); format: functional
[18] = cytotoxicity toward HCT116 cells – cell-based, CellTiter-Glo luminescence, IC50, dose response (AID 1117332); format: functional; settings: HCT-116
[19] = SNU-C1 cell viability reduction, dose response, CellTiter-Glo luminescence (AID 1117323); format: functional, cell-based
[20] = cytotoxicity toward Colo320 cells – cell-based, CellTiter-Glo luminescence, IC50, dose response (AID 1117334); format: functional; settings: COLO 320
[21] = cytotoxicity toward HT-29 cells – cell-based, CellTiter-Glo luminescence, IC50, dose response (AID 1117330); format: functional
[22] = CellTiter-Glo luminescent dose response of DLD-1 viability loss (AID 1117352); format: functional
[23] = HCT116 cell viability decrease, GSK3B pretreatment – CellTiter-Glo, IC50, dose response (AID 1117339); format: functional; settings: HCT-116
[24] = CTGF mRNA reduction under YAP1 overexpression, dose response, mechanism study for YAP1 pathway inhibitor project, DLD1 cells, RT-qPCR, cherry-pick (AID 1053127); format: functional, cell-based; settings: DLD-1
Paired box protein Pax-8 = Paired box protein Pax-8 (Homo sapiens, UniProt Q06710); test: inhibitors of PAX8-driven TPO luciferase reporter, dose response, RMG-I cells, cherry-pick (AID 687027); format: functional, cell-based;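 also: luciferase reporter driven by Pax8 target thyroperoxidase promoter measured by SteadyGlo luminescence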
[25] = IOSE-T80 ovarian epithelial cell cytotoxicity, dose response, cytotoxicity control for PAX8 inhibitor project, plate reader, dry powder samples (AID 743045); format: functional, cell-based
[26] = NIH:OVCAR-3 ovarian cancer cell cytotoxicity, dose response, PAX8 inhibitor project, plate reader, dry powder samples (AID 743044); format: functional, cell-based
[27] = cytotoxicity in OVCAR8 ovarian cancer cells, dose response, PAX8 project, cell-based, plate reader, dry powder samples (AID 743197); format: functional; settings: OVCAR-8
[28] = HepG2 hepatoma cell cytotoxicity, dose response, cytotoxicity control, CellTiter-Glo luminescence, dry powder, set 3 (AID 720594); format: functional, cell-based
[29] = HEK293T cell cytotoxicity, dose response, cytotoxicity control, CellTiter-Glo luminescence, dry powder, set 2 (AID 720595); format: functional, cell-based; settings: HEK293
[30] = HeLa cell cytotoxicity, dose response, cytotoxicity control, CellTiter-Glo luminescence, dry powder, set 2 (AID 720593); format: functional, cell-based
[31] = Luminescence-based cell-based high throughput dose response assay to identify activators of the DAF-12 from the parasite S. stercoralis (ssDAF-12).; format: functional
[32] = target: T4, Oxysterols receptor LXR-beta (Homo sapiens, UniProt P55055); test: LXR agonists, Gal4 luciferase reporter, dose response, counter-screen for ssDAF-12 agonist project, cell-based, luminescence, HEK293, S. stercoralis campaign (AID 720737); format: functional; settings: read-out: IC50 (the source's name)
T4 sequence (P55055 whole entry): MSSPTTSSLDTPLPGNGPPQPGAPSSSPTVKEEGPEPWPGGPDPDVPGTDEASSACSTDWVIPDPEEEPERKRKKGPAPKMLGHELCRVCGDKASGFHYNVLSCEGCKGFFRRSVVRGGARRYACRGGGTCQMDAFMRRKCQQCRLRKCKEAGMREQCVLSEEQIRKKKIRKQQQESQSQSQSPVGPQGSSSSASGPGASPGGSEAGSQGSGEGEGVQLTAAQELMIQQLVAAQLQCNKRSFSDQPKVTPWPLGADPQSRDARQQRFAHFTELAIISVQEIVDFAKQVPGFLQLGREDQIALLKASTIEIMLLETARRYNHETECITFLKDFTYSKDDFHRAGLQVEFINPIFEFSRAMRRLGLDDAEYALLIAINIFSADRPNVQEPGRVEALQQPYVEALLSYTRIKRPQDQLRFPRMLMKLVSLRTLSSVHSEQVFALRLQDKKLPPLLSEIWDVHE

[33] = TB: CFU replicating Measured in Microorganism System Using Imaging - 7108-05_Inhibitor_Dose_DryPowder_Activity_Set2.; format: functional

Sequence of NAD-dependent protein deacylase sirtuin-5, mitochondrial (Q9NXA8 whole entry): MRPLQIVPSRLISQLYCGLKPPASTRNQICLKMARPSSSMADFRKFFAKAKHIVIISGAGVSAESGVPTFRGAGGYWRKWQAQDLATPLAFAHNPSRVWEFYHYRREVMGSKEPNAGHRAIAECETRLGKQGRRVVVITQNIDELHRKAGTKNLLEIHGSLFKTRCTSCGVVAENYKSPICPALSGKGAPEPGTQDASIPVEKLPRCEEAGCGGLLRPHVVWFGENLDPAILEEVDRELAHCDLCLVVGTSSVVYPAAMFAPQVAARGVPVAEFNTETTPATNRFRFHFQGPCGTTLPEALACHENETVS
Sequence of Disintegrin and metalloproteinase domain-containing protein 17 (P78536 whole entry, the tested form may be a part): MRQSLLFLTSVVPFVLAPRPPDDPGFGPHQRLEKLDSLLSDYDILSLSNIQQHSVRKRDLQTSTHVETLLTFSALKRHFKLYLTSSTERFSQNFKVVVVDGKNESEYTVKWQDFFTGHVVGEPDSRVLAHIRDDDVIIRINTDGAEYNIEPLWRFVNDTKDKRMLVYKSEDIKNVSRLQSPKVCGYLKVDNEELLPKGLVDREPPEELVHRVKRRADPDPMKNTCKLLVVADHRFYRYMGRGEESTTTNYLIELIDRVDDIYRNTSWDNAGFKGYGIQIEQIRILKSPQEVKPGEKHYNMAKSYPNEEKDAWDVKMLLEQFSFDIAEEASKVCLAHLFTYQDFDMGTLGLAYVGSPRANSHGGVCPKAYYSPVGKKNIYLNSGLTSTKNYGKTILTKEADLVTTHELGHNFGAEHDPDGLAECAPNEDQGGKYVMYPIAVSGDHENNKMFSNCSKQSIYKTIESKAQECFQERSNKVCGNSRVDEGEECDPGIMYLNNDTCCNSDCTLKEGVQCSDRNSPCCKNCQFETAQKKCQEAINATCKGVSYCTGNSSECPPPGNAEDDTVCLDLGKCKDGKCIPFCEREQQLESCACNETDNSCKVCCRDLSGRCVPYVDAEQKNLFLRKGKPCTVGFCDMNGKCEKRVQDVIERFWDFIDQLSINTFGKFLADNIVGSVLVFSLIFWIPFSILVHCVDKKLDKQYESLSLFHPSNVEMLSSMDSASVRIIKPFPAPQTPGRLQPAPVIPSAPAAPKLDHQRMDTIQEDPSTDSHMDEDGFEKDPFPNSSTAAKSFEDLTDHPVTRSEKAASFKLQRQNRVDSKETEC
Sequence of Glutathione-S-transferase (Q26513 whole entry): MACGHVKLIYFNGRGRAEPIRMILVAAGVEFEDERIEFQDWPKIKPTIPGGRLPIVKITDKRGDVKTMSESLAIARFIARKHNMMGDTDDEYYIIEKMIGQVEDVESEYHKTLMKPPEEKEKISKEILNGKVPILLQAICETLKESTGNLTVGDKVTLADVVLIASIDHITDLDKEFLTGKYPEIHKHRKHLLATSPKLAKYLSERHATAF
Sequence of Delta-type opioid receptor (P41143 whole entry): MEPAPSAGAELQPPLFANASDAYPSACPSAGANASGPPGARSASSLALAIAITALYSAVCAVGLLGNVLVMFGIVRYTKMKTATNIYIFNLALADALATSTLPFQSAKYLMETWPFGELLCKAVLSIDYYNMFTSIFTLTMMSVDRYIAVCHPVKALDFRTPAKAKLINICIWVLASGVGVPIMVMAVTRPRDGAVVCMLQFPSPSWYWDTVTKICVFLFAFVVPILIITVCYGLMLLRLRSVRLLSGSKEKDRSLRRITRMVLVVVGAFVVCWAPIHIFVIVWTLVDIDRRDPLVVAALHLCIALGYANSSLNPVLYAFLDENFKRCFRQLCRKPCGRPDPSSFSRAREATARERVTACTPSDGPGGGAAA
Sequence of Kappa-type opioid receptor (P41145 whole entry): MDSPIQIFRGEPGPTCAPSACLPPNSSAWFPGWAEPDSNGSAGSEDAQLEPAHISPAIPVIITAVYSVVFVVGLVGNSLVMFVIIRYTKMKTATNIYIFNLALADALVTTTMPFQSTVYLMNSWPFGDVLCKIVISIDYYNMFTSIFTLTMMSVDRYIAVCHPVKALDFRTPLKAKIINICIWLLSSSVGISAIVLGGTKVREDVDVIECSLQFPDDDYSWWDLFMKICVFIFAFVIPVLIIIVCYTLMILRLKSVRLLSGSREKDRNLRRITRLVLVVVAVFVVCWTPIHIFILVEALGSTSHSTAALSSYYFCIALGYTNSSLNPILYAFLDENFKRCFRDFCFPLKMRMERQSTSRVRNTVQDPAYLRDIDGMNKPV
Sequence of COUP transcription factor 2 (P24468 whole entry, the tested form may be a part): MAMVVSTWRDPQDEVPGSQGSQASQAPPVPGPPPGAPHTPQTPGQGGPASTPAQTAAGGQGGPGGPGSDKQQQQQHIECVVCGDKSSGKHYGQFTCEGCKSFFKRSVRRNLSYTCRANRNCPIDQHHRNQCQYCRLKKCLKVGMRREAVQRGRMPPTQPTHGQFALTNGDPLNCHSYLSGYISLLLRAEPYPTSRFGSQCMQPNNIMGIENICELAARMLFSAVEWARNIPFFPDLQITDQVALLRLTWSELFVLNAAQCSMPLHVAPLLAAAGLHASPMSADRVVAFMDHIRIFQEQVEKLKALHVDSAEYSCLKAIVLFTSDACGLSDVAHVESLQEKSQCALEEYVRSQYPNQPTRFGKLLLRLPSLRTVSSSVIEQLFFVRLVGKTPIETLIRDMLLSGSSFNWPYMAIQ
Sequence of Sphingosine 1-phosphate receptor 1 (P21453 whole entry): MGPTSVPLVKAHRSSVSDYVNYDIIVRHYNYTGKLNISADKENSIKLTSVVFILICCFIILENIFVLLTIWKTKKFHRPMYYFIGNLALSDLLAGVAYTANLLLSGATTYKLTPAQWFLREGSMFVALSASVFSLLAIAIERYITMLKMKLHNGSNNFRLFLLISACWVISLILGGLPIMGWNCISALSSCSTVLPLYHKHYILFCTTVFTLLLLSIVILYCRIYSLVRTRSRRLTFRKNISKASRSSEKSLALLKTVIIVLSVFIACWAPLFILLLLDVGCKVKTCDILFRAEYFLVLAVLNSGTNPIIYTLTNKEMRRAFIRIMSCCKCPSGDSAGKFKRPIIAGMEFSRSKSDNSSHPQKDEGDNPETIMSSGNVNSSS
Sequence of Mu-type opioid receptor (P35372 whole entry): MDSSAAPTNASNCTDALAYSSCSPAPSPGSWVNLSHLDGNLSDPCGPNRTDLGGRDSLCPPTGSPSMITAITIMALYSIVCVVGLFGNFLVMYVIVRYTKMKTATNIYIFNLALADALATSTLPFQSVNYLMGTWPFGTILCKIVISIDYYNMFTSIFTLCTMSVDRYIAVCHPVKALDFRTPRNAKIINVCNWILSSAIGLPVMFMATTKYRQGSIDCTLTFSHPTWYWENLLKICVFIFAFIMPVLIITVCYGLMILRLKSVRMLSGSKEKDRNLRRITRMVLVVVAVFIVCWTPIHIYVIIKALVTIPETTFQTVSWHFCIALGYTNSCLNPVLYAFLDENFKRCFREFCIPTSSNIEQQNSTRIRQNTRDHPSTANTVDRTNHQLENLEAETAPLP
Sequence of FAD-linked sulfhydryl oxidase ALR (P55789 whole entry): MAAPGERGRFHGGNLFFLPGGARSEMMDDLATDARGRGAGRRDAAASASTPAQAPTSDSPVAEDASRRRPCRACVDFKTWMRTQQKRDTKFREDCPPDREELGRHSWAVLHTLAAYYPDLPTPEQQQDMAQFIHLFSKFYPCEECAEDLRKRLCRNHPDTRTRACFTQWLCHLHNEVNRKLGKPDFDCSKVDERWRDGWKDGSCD
Sequence of Paired box protein Pax-8 (Q06710 whole entry): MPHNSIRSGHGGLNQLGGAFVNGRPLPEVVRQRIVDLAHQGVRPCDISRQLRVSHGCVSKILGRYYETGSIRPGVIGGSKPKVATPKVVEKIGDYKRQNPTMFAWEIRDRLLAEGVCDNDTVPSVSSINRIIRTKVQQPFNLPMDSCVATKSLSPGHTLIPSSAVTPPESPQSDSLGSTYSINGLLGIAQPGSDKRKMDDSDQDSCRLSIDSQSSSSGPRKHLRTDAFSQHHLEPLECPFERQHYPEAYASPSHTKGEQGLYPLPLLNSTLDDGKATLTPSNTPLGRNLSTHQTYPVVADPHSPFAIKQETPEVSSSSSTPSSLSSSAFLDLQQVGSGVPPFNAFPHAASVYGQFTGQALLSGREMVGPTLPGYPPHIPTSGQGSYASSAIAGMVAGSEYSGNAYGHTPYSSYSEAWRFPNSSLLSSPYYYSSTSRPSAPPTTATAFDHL

CC(C)(C)c1ccc(-c2cc(-c3ccccc3O)n[nH]2)cc1
EC50 [1]: 1.81 µM (active) | IC50 [2]: 47.8 µM (inactive) | IC50 [3]: > 69.6 µM (inactive)

NC(=O)c1cc(N)ccc1N1CCCC1
IC50 (14-3-3 protein gamma): 18.1 µM (active) | AC50 [4]: 4.01 µM (active) | IC50 (Protein skinhead-1): > 100 µM (inactive) | IC50 [5]: 12.9 µM (active)

CN(C)c1cc(NC(=O)Nc2ccccc2)c2ccccc2n1
IC50 [6]: 32.6 µM (inactive) | IC50 (Mu-type opioid receptor): > 50 µM (inactive) | IC50 [7]: 69.5 µM (inactive) | IC50 [8]: 40 µM (inactive)

Cc1ccc(NC(=O)Nc2ccnc(-c3cccnc3)n2)cc1
EC50 [9]: 983 nM (active) | EC50 [10]: > 120 µM (not active) | EC50 [11]: 870 nM (active) | IC50 [12]: 27.8 µM (inactive) | AC50 [13]: > 52 µM (inactive)

Cc1cccc(C)c1OCCNC(=O)C(=O)NCc1ccco1
AC50 [14]: > 30 µM (inactive)

O=C(Cn1nc(-c2ccc(Cl)cc2)ccc1=O)NCC1CCCO1 (stereo not drawn)
EC50 [1]: > 195 µM (not active) | AC50 [15]: > 30 µM (inactive)

CCCCCCCCCCCCCCCCCC[N+](C)(C)CCC[Si](OC)(OC)OC
IC50 [16]: > 20 µM (inactive) | IC50 [17]: > 20 µM (inactive) | IC50 [18]: > 20 µM (inactive) | IC50 [19]: > 20 µM (inactive) | IC50 [20]: > 20 µM (inactive) | IC50 [21]: > 20 µM (inactive) | IC50 [22]: > 20 µM (inactive) | IC50 [23]: > 20 µM (inactive)

C[C@@H]1CN([C@@H](C)CO)C(=O)CCCn2nncc2CO[C@@H]1CN(C)C(=O)c1cc(-c2ccccc2)on1
AC50 [24]: > 26 µM (inactive)

CN1c2ccc(-c3ccccc3)cc2[C@H]2[C@H](CCN2C(=O)NC2CCCCC2)[C@@H]1CO
AC50 (Paired box protein Pax-8): 11.5 µM (active) | AC50 [25]: 53.9 µM (active) | AC50 [26]: 23.4 µM (active) | AC50 [27]: 25.3 µM (active)

CCn1nc(-c2cccnc2)nc2c(=O)n(C)c(=O)nc1-2
AC50 [28]: 3.24 µM (active) | AC50 [29]: 16.4 µM (active) | AC50 [30]: 4.34 µM (active)

COC(=O)[C@]12C=CCN1[C@H](c1ccc(OC)c(OC)c1)c1c(c3ccccc3n1S(=O)(=O)c1ccc(C)cc1)C2
IC50 [31]: > 67.5 µM (inactive) | EC50 [32]: > 67.5 µM (inactive)

Cn1c(NC(=O)c2ccccc2)nc2c3cccnc3ccc21
AbsAC90 [33]: 141.12 µM

Reference: ChEMBL document CHEMBL1201862, “PubChem BioAssay data set” (2004)
